≈ marks a conversion by molar mass, not a printed value. Where two headings read alike, the source gives them in different places.
What was measured:
[1] = tested on: gastric cancer cell SGC7901
Protocol: 1. Collect the gastric cancer cell SGC7901 in the logarithmic phase to prepare cell suspension, adjust its concentration to 5×10^6-10×10^6/ml, add 100 ul to each hole, pave the plate to adjust the cell density to 1000-10000 holes; fill the holes on the edges with sterile PBS;
(§1) 2. Incubate cells under the condition of 5% CO2 and 37° C. until the cell monolayer are paved on 96-hole plate bottom; after cell adhesion for 2-12 h, add the low molecular polypeptide ZY4 at a concentration of 50-300 ug/ml, and the same volume of NS as control, to incubate for 16-48 h under the condition of 5% CO2 and 37° C., and then observe under an inverted microscope;
(§2) 3. Add 20 ul of 5 mg/ml MTT solution to each hole, to continue to culture 4 h, and then draw the culture solution in the hole;
(§3) 4. Add 150 ul of DMSO to each hole, place to a shaker for oscillation 10 min at a low speed, to allow the crystals fully dissolved, measure the absorbance values of each hole at OD 490 nm using a ELISA Reader; at the same time, set the zero hole and control hole.

[2] = tested on: P. acnes ATCC6919; conditions: 2 mg/ml ointment on left ear skin, treated for 1 day; 0.20 mm before treatment, PEG control 0.43 mm
Protocol: Select Kunming male mice at a weight of 18 g each, and randomly divide them into 3 groups, 9 mice each group, respectively the treatment group, positive control group, negative control group. Each mouse is anaesthetized with 50 ul of ketamine by intraperitoneal injection, and then injected with 20 ul of resuspended bacteria solution via intracutaneous injection in the left ear of each mouse;
Disinfect the left ears of mice with a clean alcohol cotton ball, and measure the thickness of the ears of mice, results are shown in FIG. 2.

[3] = tested on: Staphylococcus cohnii (09B2490 anti-ampicillin); conditions: 37° C., 24 h
Protocol: (§4) Prepare Escherichia coli, Candida albicans, Staphylococcus aureus, Bacillus subtilis, Staphylococcus haemolyticus, Staphylococcus epidermidis, Staphylococcus cohnii solutions respectively, incubate at 37° C. for 18 h, for standby;
(§5) Prepare Broth Agar Medium, and sterilize it for standby;
(§6) Dissolve the Broth Agar Medium, cool down to 50° C., add 1 ml of Escherichia coli, Candida albicans, Staphylococcus aureus, Bacillus subtilis, Staphylococcus haemolyticus, Staphylococcus epidermidis, Staphylococcus cohnii solutions respectively, shake gently and pour into a sterile petri dish, gently shake the medium to evenly pave on the dish;
(§7) Place the filters into a cooled dish using a sterile tweezer orderly, cover with a tile cover and mark, then place to a 37° C. incubator for incubation for 24 h;

[4] = tested on: breast cancer cell MDA-435
Protocol: 1. Collect the breast cancer cell MDA-435 in the logarithmic phase to prepare cell suspension, adjust its concentration to 5×10^6-10×10^6/ml, add 100 ul to each hole, pave the plate to adjust the cell density to 1000-10000 holes; fill the holes on the edges with sterile PBS;
as §1, §2, §3

[5] = tested on: P. acnes ATCC11817; conditions: 2 mg/ml ointment on left ear skin, once every 8 h, 3 times, mice sacrificed 24 h later; PEG control 9.44×10^5
Protocol: Select Kunming male mice at a weight of 18 g each, and randomly divide them into 3 groups, 6 mice each group, respectively the treatment group, positive control group, negative control group. Each mouse is anaesthetized with 120 ul of 1% pentobarbital sodium by intraperitoneal injection, and then injected with 20 ul of resuspended bacteria solution via intracutaneous injection in the left ear of each mouse;
Disinfect the left ears of mice with a clean alcohol cotton ball, cut off the left ears into pieces, transfer to a homogenizer for homogenization. Add 1 ml of NS for homogenization for one ear;
Dilute the homogenate to 1,000-fold, take 50 ul of diluent and apply to a brain heart infusion agar plate, culture at 37° C. under the anaerobic condition for 72 h, and count the colonies.

[6] = tested on: melanoma cell A357; conditions: NS control 1.0
Protocol: 1. Collect the melanoma cell A357 in the logarithmic phase to prepare cell suspension, adjust its concentration to 5×10^6-10×10^6/ml, add 100 ul to each hole, pave the plate to adjust the cell density to 1000-10000 holes; fill the holes on the edges with sterile PBS;
as §1, with “100 ug/ml and 200” for “50-300”
as §2, §3

[7] = tested on: Staphylococcus haemolyticus (09A4394 anti-ampicillin); conditions: 37° C., 24 h
Protocol: as §4, §5, §6, §7

[8] = tested on: lung cancer cell A549; assay: MTT assay against lung cancer cell A549; assay type: cell-based
Protocol: 1. Collect the lung cancer cell A549 in the logarithmic phase to prepare cell suspension, adjust its concentration to 5×10^6-10×10^6/ml, add 100 ul to each hole, pave the plate to adjust the cell density to 1000-10000 holes; fill the holes on the edges with sterile PBS;
as §1, with “100 ug/ml and 200” for “50-300”, “ug/ml, paclitaxel at a concentration of 10 ug/ml” for “ug/ml,”, “5 ug/ml” for “the same volume of NS as control,”
as §2, §3

[9] = tested on: liver cancer cell HepG2; conditions: NS control 1.0
Protocol: 1. Collect the liver cancer cell HepG2 in the logarithmic phase to prepare cell suspension, adjust its concentration to 5×10^6-10×10^6/ml, add 100 ul to each hole, pave the plate to adjust the cell density to 1000-10000 holes; fill the holes on the edges with sterile PBS;
as §1, with “100 ug/ml and 200” for “50-300”
as §2, §3

[10] = tested on: Staphylococcus aureus; conditions: 37° C., 24 h
Protocol: as §4, §5, §6, §7

[11] = tested on: Staphylococcus epidermidis (09A3726 anti-ampicillin); conditions: 37° C., 24 h
Protocol: as §4, §5, §6, §7

[12] = tested on: Bacillus subtilis; conditions: 37° C., 24 h
Protocol: as §4, §5, §6, §7

[13] = tested on: Escherichia coli; conditions: 37° C., 24 h
Protocol: as §4, §5, §6, §7

[14] = tested on: Staphylococcus aureus (09B2499); conditions: 37° C., 24 h
Protocol: as §4, §5, §6, §7

[15] = tested on: Candida albicans; conditions: 37° C., 24 h
Protocol: as §4, §5, §6, §7

CC(C)[C@H](N)C(=O)N[C@H]1CSSC[C@@H](C(=O)N[C@H](C(N)=O)C(C)C)NC(=O)[C@H](Cc2c[nH]c3ccccc23)NC(=O)[C@H](CCCCN)NC(=O)[C@H](CCCCN)NC(=O)[C@H](Cc2c[nH]c3ccccc23)NC(=O)[C@H](CCCCN)NC(=O)[C@H](CCCNC(=N)N)NC(=O)[C@H](CCCCN)NC(=O)[C@H](Cc2c[nH]c3ccccc23)NC(=O)[C@H](CCCCN)NC(=O)[C@H](CCCCN)NC(=O)[C@H](Cc2c[nH]c3ccccc23)NC(=O)[C@H](CCCNC(=N)N)NC(=O)[C@H](CCCCN)NC1=O [ZY4]
OD value (MTT, OD 490 nm) ([1]; SGC7901, 50 ug/ml ZY4, 16-48 h): 0.65 | OD value (MTT, OD 490 nm) ([1]; SGC7901, 100 ug/ml ZY4, 16-48 h): 0.57 | OD value (MTT, OD 490 nm) ([1]; SGC7901, 200 ug/ml ZY4, 16-48 h): 0.2 | OD value (MTT, OD 490 nm) ([1]; SGC7901, 300 ug/ml ZY4, 16-48 h): 0.09 | thickness of mice ear [2]: 0.25 mm | Minimum inhibitory concentration [3]: 1.10 µg/mL (≈ 0.463 µM) | OD value (MTT, OD 490 nm) ([4]; MDA-435, 50 ug/ml ZY4, 16-48 h): 0.7 | OD value (MTT, OD 490 nm) ([4]; MDA-435, 100 ug/ml ZY4, 16-48 h): 0.61 | OD value (MTT, OD 490 nm) ([4]; MDA-435, 200 ug/ml ZY4, 16-48 h): 0.20 | OD value (MTT, OD 490 nm) ([4]; MDA-435, 300 ug/ml ZY4, 16-48 h): 0.17 | CFU of P. acnes after treatment [5]: 2.1×10^5 CFU | OD value (MTT, OD 490 nm) ([6]; A357, 100 ug/ml ZY4, 16-48 h): 1.0 | OD value (MTT, OD 490 nm) ([6]; A357, 200 ug/ml ZY4, 16-48 h): 0.72 | Minimum inhibitory concentration [7]: 2.17 µg/mL (≈ 0.914 µM) | OD value (MTT, OD 490 nm) ([8]; A549, 100 ug/ml ZY4, 16-48 h): 0.5 | OD value (MTT, OD 490 nm) ([8]; A549, 200 ug/ml ZY4, 16-48 h): 0.3 | OD value (MTT, OD 490 nm) ([9]; HepG2, 100 ug/ml ZY4, 16-48 h): 0.89 | OD value (MTT, OD 490 nm) ([9]; HepG2, 200 ug/ml ZY4, 16-48 h): 0.6 | Minimum inhibitory concentration [10]: 2.14 µg/mL (≈ 0.901 µM) | Minimum inhibitory concentration [11]: 2.45 µg/mL (≈ 1.03 µM) | Minimum inhibitory concentration [12]: 1.10 µg/mL (≈ 0.463 µM) | Minimum inhibitory concentration [13]: 12.15 µg/mL (≈ 5.12 µM) | Minimum inhibitory concentration [14]: 2.25 µg/mL (≈ 0.948 µM) | Minimum inhibitory concentration [15]: 2.12 µg/mL (≈ 0.893 µM)

CC(=O)O[C@H]1C(=O)[C@@]2(C)[C@H]([C@H](OC(=O)c3ccccc3)[C@]3(O)C[C@H](OC(=O)[C@H](O)[C@@H](NC(=O)c4ccccc4)c4ccccc4)C(C)=C1C3(C)C)[C@]1(OC(C)=O)CO[C@@H]1C[C@@H]2O [paclitaxel, reference compound]
OD value (MTT, OD 490 nm) ([8]; A549, 10 ug/ml paclitaxel (first statement), 16-48 h): 0.5 | OD value (MTT, OD 490 nm) ([8]; A549, 10 ug/ml paclitaxel (second statement), 16-48 h): 0.7

Reference: US10208088B1, “Low molecular polypeptide ZY4 and applications thereof” (Sichuan Synlight Biotech Ltd., priority 2015, dated 2019)
